Results: patent publication US5624902A, “Peptide inhibitors of calmodulin” (Torrey Pines Institute for Molecular Studies, priority 1995, dated 1997)
Square brackets hold non-standard residues; d marks the D form. Peptide text beside a SMILES is read from it.

Molecular target: calmodulin (Homo sapiens, UniProt P0DP23)
Test: calcium-dependent phosphodiesterase assay (inhibition of calmodulin activity)
Type: biochemical
Details: for IC50: concentration inhibiting 50% of calmodulin activity, assayed at 75 μM, 50 μM and 12.5 μM; for inhibition at 50 µM: inhibition of calmodulin activation of phosphodiesterase at 50 μM peptide, PDE without calmodulin = 100%, Calmo = 0%
Procedure: In this assay, calmodulin can be assayed by its ability to stimulate phosphodiesterase activity as determined by a two-step assay procedure illustrated by reactions (1) and (2).
During the first step of the assay cyclic adenosine 3'5'-monophosphate (cAMP) is incubated with calcium-activated phosphodiesterase (Cal-PDE), which hydrolyses the 3' bond producing adenosine 5'-monophosphate (5'-AMP). During the second step 5'-AMP is quantitatively converted into adenosine and inorganic phosphate (Pi) through the action of a 5'-nucleotidase. […] The amount of Pi formed is directly related to the phosphodiesterase activity which depends on the level of activation by calmodulin.
To sample assay tubes were added the following components: assay buffer, 25 μl; CaCl2, 5 μl; 5'-nucleotidase, 7.5 μl (stock solution is 10 units/ml); calmodulin 5 units; calmodulin inhibitor peptides to obtain the desired final concentration of 50 μM. The volume was then made up to 200 μl with water. Control blanks were prepared replacing the peptides with water. The added components were thoroughly mixed and the tubes incubated at 30° C. for 10 min. […] The samples were centrifuged to remove the protein precipitate and the 50 μl of the supernatant was withdrawn for phosphate measurement. […] The absorbance of the solution were read at 660 nm using water as a blank, identified as control "Calmo," as discussed in more detail below.
These three peptides commonly used in every assay as control of reproducibility of the assay.
In addition to the calcium-dependent phosphodiesterase assay data, IC50 values were determined for many of the peptides. The assay carried out for the determination in the IC50 values differed from the above screening assay by the concentration of the peptides being tested.
(2) W13: N-(4-aminobutyl)-5-chloro-2-naphtalenesulfonamide; (3) TFP: trifluoperazine; (4) Calmidasolium: (1-[bis-(4-chlorophenyl)methyl]-3[-2-(2,4-dichlorophenyl)-2[(2,4-dichlorophenyl)methoxy]-ethyl]-1H-imidazolium chloride. The IC50 values were calculated using sigmoidal curve software (Graphpad, ISI, San Diego) using the % inhibition at different mixture concentrations (see attached protocol for determination of % inhibition).

Question: For `CC[C@@H](C)[C@@H](NC(=O)[C@@H](Cc1c[nH]c2ccccc12)NC(=O)[C@@H](CC(C)C)NC(C)=O)C(=O)N[C@@H](C(=O)N[C@H](Cc1c[nH]cn1)C(=O)N[C@H](Cc1c[nH]c2ccccc12)C(N)=O)[C@H](C)CC` [Ac-(D)Leu-(D)Trp-(D)Ile-(D)Ile-(D)His-(D)Trp-NH2] (Ac-[dL][dW][dI][dI][dH][dW]-NH2), which IC50 is on record?
Answer: ≤ 9 µM

Question: And the inhibition at 50 µM?
Answer: 92.1%

Question: Which inhibition at 50 µM does the source give for `CC[C@@H](C)[C@@H](NC(=O)[C@@H](CCC(N)=O)NC(=O)[C@@H](CC(C)C)NC(C)=O)C(=O)N[C@H](Cc1c[nH]cn1)C(=O)N[C@H](CC(C)C)C(=O)N[C@H](Cc1c[nH]c2ccccc12)C(N)=O` [Ac-(D)Leu-(D)Gln-(D)Ile-(D)His-(D)Leu-(D)Trp-NH2] (Ac-[dL][dQ][dI][dH][dL][dW]-NH2) here?
Answer: 46%

Question: Which results are given for `CC[C@@H](C)[C@@H](NC(=O)[C@@H](CCCNC(=N)N)NC(=O)[C@@H](Cc1c[nH]c2ccccc12)NC(=O)[C@@H](CC(C)C)NC(C)=O)C(=O)N[C@H](CC(C)C)C(=O)N[C@H](Cc1c[nH]c2ccccc12)C(N)=O` [Ac-(D)Leu-(D)Trp-(D)Arg-(D)Ile-(D)Leu-(D)Trp-NH2] (Ac-[dL][dW][dR][dI][dL][dW]-NH2)?
Answer: IC50: 15 µM; inhibition at 50 µM: 101%

Question: With `CC[C@@H](C)[C@@H](NC(=O)[C@@H](CCCNC(=N)N)NC(=O)[C@@H](Cc1c[nH]c2ccccc12)NC(=O)[C@@H](CC(C)C)NC(C)=O)C(=O)N[C@H](Cc1c[nH]cn1)C(=O)N[C@H](Cc1c[nH]c2ccccc12)C(N)=O` [Ac-(D)Leu-(D)Trp-(D)Arg-(D)Ile-(D)His-(D)Trp-NH2] (Ac-[dL][dW][dR][dI][dH][dW]-NH2) as the compound, how does the inhibition at 50 µM read?
Answer: 52.6%

Question: With `CC[C@@H](C)[C@@H](NC(=O)[C@@H](CCC(N)=O)NC(=O)[C@@H](CC(C)C)NC(C)=O)C(=O)N[C@@H](C(=O)N[C@H](CC(C)C)C(=O)N[C@H](CCCNC(=N)N)C(N)=O)[C@H](C)CC` [Ac-(D)Leu-(D)Gln-(D)Ile-(D)Ile-(D)Leu-(D)Arg-NH2] (Ac-[dL][dQ][dI][dI][dL][dR]-NH2) as the compound, how does the IC50 read?
Answer: > 50 µM

Question: What about the inhibition at 50 µM of the same compound?
Answer: 15.8%

Question: Which inhibition at 50 µM does the source give for `CC[C@@H](C)[C@@H](NC(=O)[C@@H](CCC(N)=O)NC(=O)[C@@H](CC(C)C)NC(C)=O)C(=O)N[C@H](Cc1c[nH]cn1)C(=O)N[C@H](CC(C)C)C(=O)N[C@H](CCCNC(=N)N)C(N)=O` [Ac-(D)Leu-(D)Gln-(D)Ile-(D)His-(D)Leu-(D)Arg-NH2] (Ac-[dL][dQ][dI][dH][dL][dR]-NH2) here?
Answer: 28.9%

Question: With `CC[C@H](C)[C@H](NC(=O)[C@H](Cc1ccccc1)NC(C)=O)C(=O)N[C@H](C(=O)N[C@@H](Cc1c[nH]c2ccccc12)C(=O)N[C@@H](Cc1ccccc1)C(=O)N[C@@H](CCC(=O)O)C(N)=O)[C@@H](C)CC` [Ctr 3, Ac-Phe-Ile-Ile-Trp-Phe-Glu-NH2, reference compound] (Ac-FIIWFE-NH2) as the compound, how does the inhibition at 50 µM read?
Answer: 107%

Question: Which IC50 does the source give for `CC[C@@H](C)[C@@H](NC(=O)[C@@H](Cc1c[nH]c2ccccc12)NC(=O)[C@@H](CC(C)C)NC(C)=O)C(=O)N[C@@H](C(=O)N[C@H](CC(C)C)C(=O)N[C@H](Cc1c[nH]c2ccccc12)C(N)=O)[C@H](C)CC` [Ac-(D)Leu-(D)Trp-(D)Ile-(D)Ile-(D)Leu-(D)Trp-NH2] (Ac-[dL][dW][dI][dI][dL][dW]-NH2) here?
Answer: > 50 µM

Question: What about the inhibition at 50 µM of the same compound?
Answer: 23.7%

Question: Which inhibition at 50 µM does the source give for `CSCC[C@@H](NC(=O)[C@@H](Cc1c[nH]cn1)NC(=O)[C@@H](Cc1ccccc1)NC(=O)[C@@H](Cc1ccccc1)NC(C)=O)C(=O)N[C@H](CCSC)C(=O)N1CCC[C@@H]1C(N)=O` [Ctr 1, Ac-(D)Phe-(D)Phe-(D)His-(D)-Met-(D)Met-(D)Pro-NH2, reference compound] (Ac-[dF][dF][dH][dM][dM][dP]-NH2) here?
Answer: 36.8%
